Source: US9789110B2, “Diacylglycerol acyltransferase 2 inhibitors” (PFIZER INC., priority 2014, dated 2017)

target: hDGAT2 (Homo sapiens (Human), UniProt Q96PD7); assay: In vitro DGAT2 assay, hDGAT2 membrane fraction, [14C]decanoyl-CoA scintillation readout; type: biochemical; conditions: geometric mean; FLAG-hDGAT2 membrane fraction; 2 h preincubation; read-out: IC50 for inhibition of DGAT2
Protocol: Recombinant baculovirus for the FLAG-tagged hDGAT2 was generated in SF9 insect cells using Bac-to-Bac baculovirus expression system (Invitrogen) according to the manufacturer's protocol. For the expression of hDGAT2, SF9 cells (20 L) grown in Sf90011 media were infected with hDGAT2 baculovirus at a multiplicity of infection of 1 in a Wave Bioreactor System 20/50P wave bag (GE Healthcare). After 40 hours of infection, the cells were then harvested by centrifugation at 5,000×g. The cell pellets were washed by resuspending in phosphate buffered saline (PBS) and collected by centrifugation at 5,000×g. The cell paste was flash frozen in liquid N2 and stored at −80° C. until needed. All operations below were at 4° C. unless otherwise noted. The cells were resuspended in lysis buffer (50 mM Tris-HCl, pH 8.0, 250 mM sucrose) including 1 mM ethylenediaminetetraacetic acid (EDTA) and the complete protease inhibitor cocktail (Roche Diagnostics) at a ratio of 3 ml buffer per 1 g cell paste. The cells were lysed by dounce homogenizer. The cell debris was removed by centrifugation at 1,000×g for 20 min, and the supernatant was centrifuged at 100,000×g for 1 hour. The resulting pellet was rinsed three times by filling ultracentrifuge tubes to the top with ice cold PBS before decanting. The washed pellet was resuspended with gentle stirring for 1 hour in lysis buffer containing 8 mM 3-[(3-cholamidopropyl)dimethylammonio]-1-propanesulfonate (CHAPS) at a ratio of 1 mL buffer per 1 g of original cell paste and centrifuged again at 100,000×g for 1 hour. The resulting supernatant was aliquotted, flash frozen in liquid N2, and stored at −80° C. until use.
For determination of IC50 values, the reactions were carried out in 384-well white Polyplates (Perkin Elmer) in a total volume of 20 μL. To […] compounds dissolved in 100% DMSO and spotted at the bottom of each well, 5 μL of 0.04% bovine serum albumin (BSA) (fatty acid free, Sigma Aldrich) was added and the mixture was incubated at room temperature for 20 minutes. To this mixture, 10 μL of hDGAT2 membrane fraction (0.01 mg/mL) diluted in 100 mM Hepes-NaOH, pH 7.4, 20 mM MgCl2 containing 200 nM methyl arachidonyl fluorophosphonate (Cayman Chemical; dried from ethyl acetate stock solution under argon gas and dissolved in DMSO as 5 mM stock) was added. After this mixture was preincubated at room temperature for 2 hours, DGAT2 reactions were initiated by the addition of 4 μL of substrates containing 30 μM [1-^14C]decanoyl-CoA (custom-synthesized by Perkin Elmer, 50 mCi/mmol) and 125 μM 1,2-didecanoyl-sn-glycerol (Avanti Polar Lipids) dissolved in 12.5% acetone. The reaction mixtures were incubated at room temperature for 40 min and the reactions were stopped by addition of 5 μL of 1% H3PO4. After the addition of 45 μL MicroScint-E (Perkin-Elmer), plates were sealed with Top Seal-A covers (Perkin-Elmer) and phase partitioning of substrates and products was achieved using a HT-91100 microplate orbital shaker (Big Bear Automation, Santa Clara, Calif.). Plates were centrifuged at 2,000×g for 1 min in an Allegra 6R Centrifuge (Beckman Coulter) and then were sealed again with fresh covers before reading in a 1450 Microbeta Wallac Trilux Scintillation Counter (Perkin Elmer). DGAT2 activity was measured by quantifying the generated product [^14C]tridecanoylglycerol in the upper organic phase.
Inhibitors were tested at eleven different concentrations to generate IC50 values for each compound.

hDGAT2, sequence (Q96PD7 whole entry): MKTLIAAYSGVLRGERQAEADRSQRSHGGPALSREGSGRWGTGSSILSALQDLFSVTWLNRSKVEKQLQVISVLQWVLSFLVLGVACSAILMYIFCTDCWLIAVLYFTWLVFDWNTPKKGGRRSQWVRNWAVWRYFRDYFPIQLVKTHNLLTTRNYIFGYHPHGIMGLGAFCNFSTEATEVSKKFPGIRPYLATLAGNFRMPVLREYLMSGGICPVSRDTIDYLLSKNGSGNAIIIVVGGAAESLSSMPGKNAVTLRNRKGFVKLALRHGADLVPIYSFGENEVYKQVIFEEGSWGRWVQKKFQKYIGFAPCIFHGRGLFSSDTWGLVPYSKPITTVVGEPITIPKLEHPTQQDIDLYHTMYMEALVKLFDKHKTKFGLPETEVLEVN

Compound | IC50 [nM]
CCOc1ccccc1O[C@@H]1CCCN(c2ncc(C(=O)NCc3cccc(C(=O)O)c3OC)cn2)C1 [Example 14, (R)-3-((2-(3-(2-ethoxyphenoxy)piperidin-1-yl)pyrimidine-5-carboxamido)methyl)-2-methoxybenzoic acid] | 76.6
CCOc1ccccc1O[C@@H]1CCCN(c2ncc(C(=O)N3CCOCC3)cn2)C1 [Example 19.1, (R)-(2-(3-(2-ethoxyphenoxy)piperidin-1-yl)pyrimidin-5-yl)(morpholino)methanone] | 22.6
CCOc1ccccc1O[C@@H]1CCCN(c2ncc(C(=O)NCc3ccon3)cn2)C1 [Example 19.3, (R)-2-(3-(2-ethoxyphenoxy)piperidin-1-yl)-N-(isoxazol-3-ylmethyl)pyrimidine-5-carboxamide] | 10.8
CCOc1ccccc1O[C@@H]1CCCN(c2ncc(C(=O)NCC3CC3)cn2)C1 [Example 19.4, (R)-N-(cyclopropylmethyl)-2-(3-(2-ethoxyphenoxy)piperidin-1-yl)pyrimidine-5-carboxamide] | 18.6
CCOc1ccccc1O[C@@H]1CCCN(c2ncc(C(=O)NCC(=N)N)cn2)C1 [Example 19.5, (R)-N-(2-amino-2-iminoethyl)-2-(3-(2-ethoxyphenoxy)piperidin-1-yl)pyrimidine-5-carboxamide] | 124
CCOc1ccccc1O[C@@H]1CCCN(c2ncc(C(=O)N3Cc4cnn(C)c4C3)cn2)C1 [Example 19.6, (R)-(2-(3-(2-ethoxyphenoxy)piperidin-1-yl)pyrimidin-5-yl)(1-methyl-4,6-dihydropyrrolo[3,4-c]pyrazol-5(1H)-yl)methanone] | 34.9
CCOc1ccccc1O[C@@H]1CCCN(c2ncc(C(=O)NCc3ccccc3)cn2)C1 [Example 19.7, (R)-N-benzyl-2-(3-(2-ethoxyphenoxy)piperidin-1-yl)pyrimidine-5-carboxamide] | 4.3
CCOc1ccccc1O[C@@H]1CCCN(c2ncc(C(=O)NCCS(C)(=O)=O)cn2)C1 [Example 19.8, (R)-2-(3-(2-ethoxyphenoxy)piperidin-1-yl)-N-(2-(methylsulfonyl)ethyl) pyrimidine-5-carboxamide] | 102
CCOc1ccccc1O[C@@H]1CCCN(c2ncc(C(=O)N3CC(OC)C3)cn2)C1 [Example 19.9, (R)-(2-(3-(2-ethoxyphenoxy)piperidin-1-yl)pyrimidin-5-yl)(3-methoxyazetidin-1-yl)methanone] | 14.3
CCOc1ccccc1O[C@@H]1CCCN(c2ncc(C(=O)NCCn3cncn3)cn2)C1 [Example 19.10, (R)-N-(2-(1H-1,2,4-triazol-1-yl)ethyl)-2-(3-(2-ethoxyphenoxy)piperidin-1-yl)pyrimidine-5-carboxamide] | 32.4
CCOc1ccccc1O[C@@H]1CCCN(c2ncc(C(=O)N3CCC3)cn2)C1 [Example 19.11, (R)-azetidin-1-yl(2-(3-(2-ethoxyphenoxy)piperidin-1-yl)pyrimidin-5-yl)methanone] | 26.7
CCOc1ccccc1O[C@@H]1CCCN(c2ncc(C(=O)N3Cc4ccccc4C3)cn2)C1 [Example 19.12, (R)-(2-(3-(2-ethoxyphenoxy)piperidin-1-yl)pyrimidin-5-yl)(isoindolin-2-yl)methanone] | 1.4
CCOc1ccccc1O[C@@H]1CCCN(c2ncc(C(=O)N[C@H]3CNC(=O)C3)cn2)C1 [Example 19.13, 2-((R)-3-(2-ethoxyphenoxy)piperidin-1-yl)-N-((R)-5-oxopyrrolidin-3-yl)pyrimidine-5-carboxamide] | 46.7
CCOc1ccccc1O[C@@H]1CCCN(c2ncc(C(=O)N3C[C@H]4C[C@@H]3CO4)cn2)C1 [Example 19.14, ((1R,4R)-2-oxa-5-azabicyclo[2.2.1]heptan-5-yl)(2-((R)-3-(2-ethoxyphenoxy)piperidin-1-yl)pyrimidin-5-yl)methanone] | 21.5
CCOc1ccccc1O[C@@H]1CCCN(c2ncc(C(=O)NCc3cocn3)cn2)C1 [Example 19.15, (R)-2-(3-(2-ethoxyphenoxy)piperidin-1-yl)-N-(oxazol-4-ylmethyl)pyrimidine-5-carboxamide] | 11.2
CCOc1ccccc1O[C@@H]1CCCN(c2ncc(C(=O)N[C@@H]3CNC(=O)C3)cn2)C1 [Example 19.16, 2-((R)-3-(2-ethoxyphenoxy)piperidin-1-yl)-N-((S)-5-oxopyrrolidin-3-yl)pyrimidine-5-carboxamide] | 122
CCOc1ccccc1O[C@@H]1CCCN(c2ncc(C(=O)NC(C)(C)CC(N)=O)cn2)C1 [Example 19.17, (R)-N-(4-amino-2-methyl-4-oxobutan-2-yl)-2-(3-(2-ethoxyphenoxy)piperidin-1-yl)pyrimidine-5-carboxamide] | 12.2
CCOc1ccccc1O[C@@H]1CCCN(c2ncc(C(=O)NCc3cnccn3)cn2)C1 [Example 19.18, (R)-2-(3-(2-ethoxyphenoxy)piperidin-1-yl)-N-(pyrazin-2-ylmethyl)pyrimidine-5-carboxamide] | 22.5
CCOc1ccccc1O[C@@H]1CCCN(c2ncc(C(=O)Nc3ccon3)cn2)C1 [Example 19.19, (R)-2-(3-(2-ethoxyphenoxy)piperidin-1-yl)-N-(isoxazol-3-yl)pyrimidine-5-carboxamide] | 11.1
CCOc1ccccc1O[C@@H]1CCCN(c2ncc(C(=O)Nc3cncnc3)cn2)C1 [Example 19.20, (R)-2-(3-(2-ethoxyphenoxy)piperidin-1-yl)-N-(pyrimidin-5-yl)pyrimidine-5-carboxamide] | 33.3
CCOc1ccccc1O[C@@H]1CCCN(c2ncc(C(=O)NC3CCC3)cn2)C1 [Example 19.22, (R)-N-cyclobutyl-2-(3-(2-ethoxyphenoxy)piperidin-1-yl)pyrimidine-5-carboxamide] | 10.7
CCOc1ccccc1O[C@@H]1CCCN(c2ncc(C(=O)NCCC(N)=O)cn2)C1 [Example 20.1, (R)-N-(3-amino-3-oxopropyl)-2-(3-(2-ethoxyphenoxy)piperidin-1-yl)pyrimidine-5-carboxamide] | 149
CCOc1ccccc1O[C@@H]1CCCN(c2ncc(C(=O)NCCCc3nn[nH]n3)cn2)C1 [Example 20.2, (R)-N-(3-(2H-tetrazol-5-yl)propyl)-2-(3-(2-ethoxyphenoxy)piperidin-1-yl)pyrimidine-5-carboxamide] | 431
CCOc1ccccc1O[C@@H]1CCCN(c2ncc(C(=O)N(C)C)cn2)C1 [Example 20.3, (R)-2-(3-(2-ethoxyphenoxy)piperidin-1-yl)-N,N-dimethylpyrimidine-5-carboxamide] | 104
CCOc1ccccc1O[C@@H]1CCCN(c2ncc(C(=O)NCCC(=O)NC)cn2)C1 [Example 20.4, (R)-2-(3-(2-ethoxyphenoxy)piperidin-1-yl)-N-(3-(methylamino)-3-oxopropyl)pyrimidine-5-carboxamide] | 53.3
CCOc1ccccc1O[C@@H]1CCCN(c2ncc(C(=O)NCC(=O)NC)cn2)C1 [Example 20.6, (R)-2-(3-(2-ethoxyphenoxy)piperidin-1-yl)-N-(2-(methylamino)-2-oxoethyl)pyrimidine-5-carboxamide] | 144
CCOc1ccccc1O[C@@H]1CCCN(c2ncc(C(=O)N3CC(F)(F)C3)cn2)C1 [Example 20.7, (R)-(3,3-difluoroazetidin-1-yl)(2-(3-(2-ethoxyphenoxy)piperidin-1-yl)pyrimidin-5-yl)methanone] | 7.9
CCOc1ccccc1O[C@@H]1CCCN(c2ncc(C(=O)N3CCCC3)cn2)C1 [Example 20.9, (R)-(2-(3-(2-ethoxyphenoxy)piperidin-1-yl)pyrimidin-5-yl)(pyrrolidin-1-yl)methanone] | 24.5

same assay, conditions: read-out: IC50 for inhibition of DGAT2

Compound | IC50 [nM]
CCOc1ccccc1O[C@@H]1CCCN(c2ncc(C(=O)N3CCCCC3)cn2)C1 [Example 20.11, (R)-(2-(3-(2-ethoxyphenoxy)piperidin-1-yl)pyrimidin-5-yl)(piperidin-1-yl)methanone] | 15.7
